Assay results reported in EP0721336B1, “BENZAZOLE COMPOUNDS FOR USE IN THERAPY” (CANCER RESEARCH CAMPAIGN TECHNOLOGY LIMITED, priority 1993, dated 1995).
≈ marks a conversion by molar mass, not a printed value. Read-outs that look alike come from different tables or passages of the source.

Tests used:
[1] = tested on: A2780/CisR; experiment: In vitro cytotoxicity assay; type: cell-based; settings: Homo sapiens, A2780cisR; 2nd series of experiments
Text: (§1) This is illustrated in Tables 1 and 2 at the end of the present description which show in vitro test results obtained in various sets of experiments for the cytotoxic activity of this compound CJM 126 against a range of human tumour cell lines, expressed in terms of IC50 values (concentration or dosage required to reduce cell growth or proliferation by 50%) calculated from dose-effect curves plotted for cultures of the cells in question.
(§2) In carrying out the above in vitro studies, the method used for conducting the cytotoxicity assays was generally substantially as follows: • Cells were maintained in a continuous logarithmic culture in Dulbecco's medium supplemented with 10% fetal calf serum and penicillin (100 IU/ml) and streptomycin (100 µg/ml). The cells were mildly trypsinized for passage and for use in assays. On day zero, 100µl of trypsinized tumour cells (1 x 10^4/ml) were plated in the wells of 96-well flat-bottom microtiter plates. […] On day two 50µl of the highest drug concentration was added to the wells of column 12 and from there serially diluted 3-fold to column 1 by serial transfer of 50µl using an 8-channel micropipette. The final volume of column 1 was adjusted to 100µl. No additions were made to the wells of rows A and B, which served as controls. The plates were further incubated for 5 days at 37°C and 5% CO2 in air. Each compound was tested in duplicate. • On day 7 the test was terminated by the addition of 100µl saline containing 0.002% w/v propidium iodide (Sigma), 0.3% drawing ink (Staedtler "Marsmatic 745" - Trade Mark) and 0.5% Triton X-100. The plates were kept at 4°C overnight before reading on an inverted microscope equipped with an automated scanning stage. Fluorescence intensity was measured in arbitrary units by a photomultiplier. An HP-87 computer controlled the movement of the stage and also collected and processed the data from the multiplier. • For each compound tested a dose-response curve was obtained and the IC50 value (the drug concentration at 50% inhibition of cell growth) was calculated.

[2] = tested on: HT29 colon carcinoma; experiment: In vitro cytotoxicity assay; type: cell-based; settings: Homo sapiens, HT-29
Text: as §1, §2

[3] = tested on: SKOV-3 ovarian carcinoma; experiment: In vitro cytotoxicity assay; type: cell-based; settings: Homo sapiens, SK-OV-3; 2nd series of experiments
Text: as §1, §2

[4] = tested on: T24 bladder carcinoma; experiment: In vitro cytotoxicity assay; type: cell-based; settings: Homo sapiens
Text: as §1, §2

[5] = tested on: 41M/CisP; experiment: In vitro cytotoxicity assay; type: cell-based; settings: Homo sapiens; 2nd series of experiments
Text: as §1, §2

[6] = tested on: MCF 7-B (ER+); experiment: In vitro cytotoxicity assay; type: cell-based; settings: Homo sapiens; 2nd series of experiments
Text: as §1, §2

[7] = tested on: human MDA 468 xenograft tumours; experiment: In vivo activity against MDA 468 xenograft; set-up: species or system nude mice
Protocol: The effect of CJM 126 (0.1, 0.01 and 0.001mg/kg) has also been investigated in nude mice bearing human MDA 468 xenograft tumours.

[8] = biological target: EGFR tyrosine kinase (Homo sapiens, UniProt P00533); experiment: Western blot analyses with anti-phosphotyrosine primary antibody; type: cell-based; settings: unstimulated or EGF stimulated
EGFR tyrosine kinase, sequence (P00533 25-1210): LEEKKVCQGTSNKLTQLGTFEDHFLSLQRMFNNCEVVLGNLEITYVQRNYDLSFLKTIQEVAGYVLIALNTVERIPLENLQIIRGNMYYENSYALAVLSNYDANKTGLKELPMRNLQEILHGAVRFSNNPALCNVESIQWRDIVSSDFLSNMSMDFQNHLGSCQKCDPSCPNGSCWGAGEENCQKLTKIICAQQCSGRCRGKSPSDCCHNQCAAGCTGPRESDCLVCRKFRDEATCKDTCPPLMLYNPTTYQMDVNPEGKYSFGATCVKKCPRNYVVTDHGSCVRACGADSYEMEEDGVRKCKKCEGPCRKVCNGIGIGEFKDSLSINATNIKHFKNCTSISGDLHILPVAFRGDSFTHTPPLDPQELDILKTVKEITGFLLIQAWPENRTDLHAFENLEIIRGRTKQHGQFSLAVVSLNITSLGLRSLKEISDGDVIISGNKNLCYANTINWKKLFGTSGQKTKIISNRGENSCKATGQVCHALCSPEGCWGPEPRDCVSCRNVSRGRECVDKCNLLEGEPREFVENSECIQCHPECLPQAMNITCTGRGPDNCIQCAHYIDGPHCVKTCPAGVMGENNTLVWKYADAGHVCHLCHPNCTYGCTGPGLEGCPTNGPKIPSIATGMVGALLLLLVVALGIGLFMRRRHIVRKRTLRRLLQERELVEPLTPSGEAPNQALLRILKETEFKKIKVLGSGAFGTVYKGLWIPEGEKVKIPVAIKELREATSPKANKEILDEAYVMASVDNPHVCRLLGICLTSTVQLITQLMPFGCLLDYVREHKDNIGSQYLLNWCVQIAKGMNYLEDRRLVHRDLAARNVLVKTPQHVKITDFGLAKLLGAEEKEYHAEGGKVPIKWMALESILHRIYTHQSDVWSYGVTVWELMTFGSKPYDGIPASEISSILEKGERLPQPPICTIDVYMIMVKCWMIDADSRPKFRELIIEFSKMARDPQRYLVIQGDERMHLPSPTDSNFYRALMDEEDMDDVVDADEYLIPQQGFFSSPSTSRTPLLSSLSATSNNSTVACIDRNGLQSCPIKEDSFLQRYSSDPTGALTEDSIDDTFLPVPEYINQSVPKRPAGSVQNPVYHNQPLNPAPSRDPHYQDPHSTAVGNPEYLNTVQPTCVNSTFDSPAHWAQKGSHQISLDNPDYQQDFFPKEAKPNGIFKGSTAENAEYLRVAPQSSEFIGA

[9] = tested on: MDA 468 mammary (ER-/EGFR+); experiment: In vitro cytotoxicity assay; type: cell-based, human; settings: Homo sapiens
Text: as §1, §2

[10] = tested on: A2780 ovarian carcinoma; experiment: In vitro cytotoxicity assay; type: cell-based, human
Text: as §1, §2

[11] = Aqueous solubility; type: physicochemical; settings: water
Protocol: The latter was first obtained (as yellow crystals, m.p. 229-231°C, crystallised from methanol or dimethyl formamide) either via Route C (71% yield) from 2-aminothiophenol and 4-nitrobenzoyl chloride, or via Route D (10% yield) from the corresponding thiobenzanilide and potassium ferricyanide.

[12] = tested on: MCF 7-ADR mammary; experiment: In vitro cytotoxicity and growth stimulation assay; type: cell-based, human
Text: as §1, §2

[13] = biological target: EGFR (Homo sapiens, UniProt P00533); experiment: Displacement of iodinated EGF from EGFR; type: binding; settings: 1µM, 10µM and 100µM
EGFR, sequence (P00533 25-1210): as above

Nc1ccc(-c2nc3ccccc3s2)cc1 [CJM 126, 2-(4-aminophenyl)benzothiazole]
IC50 [1]: 37 µM | IC50 ([2]; 1st series of experiments): 7.57 µg/mL | IC50 ([2]; 2nd series of experiments): 33 µM | IC50 [3]: 64 µM | IC50 ([4]; 1st series of experiments): 16.9 µg/mL | IC50 ([4]; 2nd series of experiments): 75 µM | IC50 [5]: 40 µM | IC50 [6]: 62.2 µM | Tumour weight (g) ([7]; 0.1mg/kg daily): .30 + .07 g | Cross section tumour area (mm) ([7]; 0.1mg/kg daily, Day 5): 97.75 ± 9.55 mm | Cross section tumour area (mm) ([7]; 0.1mg/kg daily, Day 12): 71.07 ± 7.2 mm | Cross section tumour area (mm) ([7]; 0.1mg/kg daily, Day 15): 82.17 + 1058 mm | Cross section tumour area (mm) ([7]; 0.1mg/kg daily, Day 19): 88.84 ± 3.69 mm | Cross section tumour area (mm) ([7]; 0.1mg/kg daily, Day 22): 105.66 ± 5.49 mm | Cross section tumour area (mm) ([7]; 0.1mg/kg daily, Day 26): 124.55 ± 7.90 mm | Cross section tumour area (mm) ([7]; 0.1mg/kg daily, Day 29): 182.15 ± 14.79 mm | Cross section tumour area (mm) ([7]; 0.1mg/kg daily, Day 32): 196.66 ± 18.65 mm | Tumour weight (g) ([7]; .001mg/kg daily): .19 + .08 g | Cross section tumour area (mm) ([7]; .001mg/kg daily, Day 5): 85.54 ± 19.44 mm | Cross section tumour area (mm) ([7]; .001mg/kg daily, Day 12): 52.93 ± 2.65 mm | Cross section tumour area (mm) ([7]; .001mg/kg daily, Day 15): 67.81 ± 12.92 mm | Cross section tumour area (mm) ([7]; .001mg/kg daily, Day 19): 64.8 ± 17.35 mm | Cross section tumour area (mm) ([7]; .001mg/kg daily, Day 22): 75.12 ± 20.05 mm | Cross section tumour area (mm) ([7]; .001mg/kg daily, Day 26): 81.53 ± 26.16 mm | Cross section tumour area (mm) ([7]; .001mg/kg daily, Day 29): 114.65 + 3457 mm | Cross section tumour area (mm) ([7]; .001mg/kg daily, Day 32): 129.06 ± 32.08 mm | Tumour weight (g) ([7]; .01mg/kg daily): .29 + .15 g | Cross section tumour area (mm) ([7]; .01mg/kg daily, Day 5): 120.78 ± 5.83 mm | Cross section tumour area (mm) ([7]; .01mg/kg daily, Day 12): 71.65 ± 11.67 mm | Cross section tumour area (mm) ([7]; .01mg/kg daily, Day 15): 78.21 ± 6.69 mm | Cross section tumour area (mm) ([7]; .01mg/kg daily, Day 19): 98.03 ± 33.51 mm | Cross section tumour area (mm) ([7]; .01mg/kg daily, Day 22): 117.02 ± 42.1 mm | Cross section tumour area (mm) ([7]; .01mg/kg daily, Day 26): 131.58 ± 23.41 mm | Cross section tumour area (mm) ([7]; .01mg/kg daily, Day 29): 164.90 ± 37.18 mm | Cross section tumour area (mm) ([7]; .01mg/kg daily, Day 32): 191.68 ± 45.65 mm | inhibition of EGFR tyrosine kinase activity [8]: no apparent inhibition | IC50 ([9]; MDA 468, read-out: estimated IC50): ~0.0016 µM | IC50 ([9]; column A, read-out: MDA 468 A IC50 at sub-micromolar concentrations): 0.0016 µM | IC50 ([9]; 2nd series of experiments, read-out: IC50): 0.0016 µM | IC50 ([10]; 2nd series of experiments): 43 µM | IC50 ([10]; Homo sapiens, A2780, 1st series of experiments): 8.83 µg/mL | IC50 ([10]; Homo sapiens, A2780, 2nd series of experiments): 39 µM | solubility [11]: ~3.8 µg/mL (≈ 16.8 µM) | stimulation ([12]; 2nd series of experiments, concentration giving stimulation): stimulation > 1µM | effect on cell growth ([12]; 3 and 10µM, seeding density 2.5 x 10^2 cells per well): induced proliferation | displacement of iodinated EGF from EGFR [13]: no ability to displace
